Here are results for 106 molecules from a melting point compilation (Tetko et al.).

The term melting point denotes the temperature of the solid-liquid transition. With `O=CC=P(c1ccccc1)(c1ccccc1)c1ccccc1`, the melting point stood at 186 °C.

`CC(O)COC(C)(C)C` (stereo unspecified) came in with a melting point of -56 °C.

For the molecule `Cc1ccc2c(CCl)c(C)ccc2c1CCl`, the melting point came to 228 °C.

For `OCc1ccc(-c2ccncc2)cc1`, the melting point is 173 to 176 °C.

Take `CCOC(CNC1=CC(=O)C=CC1=O)OCC`: the melting point turned out to be 70 °C.

Regarding `C=CC(=O)OCCN(CC)CC`, the melting point was -60 °C.

In turn, `Cn1c(=O)c2c(ncn2CC(O)CO)n(C)c1=O` (stereo unspecified) returned a melting point of 162 °C.

Consider `CC(=O)CCc1oc2ccc(C)cc2c1-c1ccc(C)o1`, for which the melting point turned out to be 76 °C.

Regarding `COc1ccc2c(=O)cc(-c3ccccc3)oc2c1`, the melting point came to 110 °C.

The molecule `Cc1ccc([N+](=O)[O-])c2ccccc12` gave a melting point of 71.5 °C.

Regarding `C=C1C[C@H]1C(O)C(=O)OC` (stereo partly specified), the melting point was 41.5 °C.

As to `Cc1ccc(S(=O)(=O)n2cccc2)cc1`, the melting point was 101 °C.

In turn, `OC(c1ccccc1)(c1ccccc1)[C@@H](c1ccccc1)N1CCCCC1` registered a melting point of 158 °C.

The molecule `Cn1c(=O)c2[nH]c(=O)[nH]c2n(C)c1=O` gave a melting point of 412 to 415 °C.

On to `CCCCOC(=O)CC(CC(=O)OCCCC)(OC(C)=O)C(=O)OCCCC`, for which the melting point was -59 °C.

On to `CC(=O)n1c(C)cc2cc3c(cc21)=NC(C)C=3` (stereo unspecified), for which the melting point was 279 °C.

As to `NNc1ccc(S(=O)(=O)O)cc1`, the melting point stood at 286 °C.

Molecule `O=c1c(O)c(-c2ccc(O)c(O)c2)oc2cc(OC3OC(CO)C(O)C(O)C3O)cc(O)c12` (stereo unspecified) returned a melting point of 248 °C.

In turn, `O=c1[nH]c(=O)n(C2CC(O)C(CO)O2)cc1C(F)(F)F` (stereo unspecified) returned a melting point of 188 °C.

In turn, `COc1cc2c(cc1OC)C(C#N)C2` (stereo unspecified) had a melting point of 82 °C.

`O=C(Cl)c1cccc(F)c1` gave a melting point of -30 °C.

`CC(=O)N=c1c(-c2ccccc2)cc2cc3cc(-c4ccccc4)c(=NC(C)=O)n(C(C)=O)c3cc2n1C(C)=O`: the melting point lay in the range of 238 to 240 °C.

As to `CC(=O)CCc1cc2c(cc1N=Nc1ccccc1C(=O)O)CCC(C)N2` (stereo unspecified), the melting point was 157 °C.

As for `COc1c(C)c(C)c(OC)c(C=O)c1C`, the melting point was found to be 86 °C.

In turn, `O=C(CCCN1CCC(O)(c2ccc(Cl)cc2)CC1)c1ccc(F)cc1` returned a melting point of 148 °C.

In turn, `N#Cc1c(-c2ccc(F)cc2)c(C#N)c(=O)n(N)c1N` showed a melting point of 304 °C.

In turn, `Cc1cc(Oc2ccc(N)cn2)cc(C)c1Cl` gave a melting point of 96 to 98 °C.

The molecule `CCN(C(=O)N(CC)c1ccccc1)c1ccccc1` yielded a melting point of 79 °C.

`Nc1c(Cl)c(Cl)nc(Cl)c1Cl` yielded a melting point of 212 to 215 °C.

As to `CCCBr`, the melting point is -110 °C.

Take `CC/C(=N\NC(N)=O)C1CC2(C)CCC1C2(C)C` (stereo unspecified): the melting point is 222 °C.

Molecule `CC(=O)NCCNC(C)=O` had a melting point of 174 °C.

In the case of `O=[N+]([O-])c1ccsc1`, the melting point is 78.5 °C.

`CCCCN1C(=O)c2ccccc2C1=O` registered a melting point of 34 °C.

Molecule `CC(C=CC=C(C)C=CC1=C(C)CC(O)CC1(C)C)=CC=CC=C(C)C=CC=C(C)C=CC1=C(C)CC(O)CC1(C)C` (stereo unspecified) registered a melting point of 216 °C.

Consider `O=C(O)c1cc([N+](=O)[O-])c(O)c([N+](=O)[O-])c1`, for which the melting point turned out to be 250 °C.

`NC(=O)c1ccccc1C(N)=O` had a melting point of 222 °C.

The molecule `Brc1ccccc1-c1nnn[nH]1` displayed a melting point of 182 to 184 °C.

In turn, `Cc1noc(-c2ccccc2)c1CBr` had a melting point of 72 °C.

For the molecule `O=Cc1cccc2c1CCOC2=O`, the melting point was determined as 140 °C.

For `CCOC(C/N=C/c1ccc(/C=N/CC(OCC)OCC)c([N+](=O)[O-])c1)OCC`, the melting point was 38 °C.

For `COc1c(Cl)c(Cl)cc(Cl)c1Cl`, the melting point came out at 88.5 °C.

`COc1cc(C(c2ccc(C)o2)c2ccc(C)o2)c(O)cc1[N+](=O)[O-]` gave a melting point of 104 °C.

Molecule `CCOC(=O)c1c(SC)nn(C(=O)Cc2ccccc2)c1N` yielded a melting point of 120 °C.

For `C[C@@]12CCC[C@@]1(O)[C@@H]1CC=C3CC(O)CC[C@]3(C)[C@H]1CC2` (stereo partly specified), the melting point lay within 201 to 203 °C.

`O=C(Cl)c1ccc2nsnc2c1` gave a melting point of 111 °C.

`CC(C)n1nnc2cc(C(=O)Cl)ccc21` displayed a melting point of 140 to 143 °C.

Turning to `O=[N+]([O-])c1ccc(-c2nc(-c3ccccc3)c(-c3ccccc3)[nH]2)cc1`, the melting point was 243 to 246 °C.

For the molecule `Clc1ccc2nc(Cl)c(Cl)nc2c1`, the melting point was in the range of 143 to 148 °C.

In turn, `Fc1ccc(-n2cc[nH]c2=S)cc1` had a melting point of 207 to 209 °C.

Turning to `CC(=O)OC1CCC2(C)C(=CC(=O)C3C2CCC2(C)C(OCc4ccccc4)CCC32)C1` (stereo unspecified), the melting point was determined as 203 °C.

As to `CC(=O)OC1CCC2C3CCC4CC(C(C)=O)=CCC4(C)C3CCC12C` (stereo unspecified), the melting point fell in the range of 115 to 140 °C.

Molecule `OCCCCCCCCCCCCBr` returned a melting point of 34 °C.

With `O=S(=O)(O)NC1CCCCC1`, the melting point is 170 °C.

In the case of `CCCCc1ccc(C(=O)O)cc1`, the melting point is 106 °C.

In turn, `CCNc1c(C=O)c(=O)oc2ccccc12` showed a melting point of 181 °C.

Regarding `COc1cc(F)ccc1C=O`, the melting point came out at 61 °C.

In turn, `CCN(CC)C(=O)c1ccccc1C(=O)N(CC)CC` displayed a melting point of 36 °C.

`CC(C)C[C@@H](CC#N)NC(=O)OC(C)(C)C` yielded a melting point of 75 to 77 °C.

With `CC1(C)SC2C(NC(=O)C3(N)CCCCC3)C(=O)N2C1C(=O)O` (stereo unspecified), the melting point turned out to be 182 °C.

`Nc1ccccc1F` yielded a melting point of -29 °C.

In turn, `Cc1onc(-c2ccccc2)c1CO` returned a melting point of 81 to 82 °C.

Take `CCOP(=S)(OCC)SCSC(C)(C)C`: the melting point was -29.2 °C.

The molecule `O=C(OCC(COC(=O)c1cccnc1)(COC(=O)c1cccnc1)COC(=O)c1cccnc1)c1cccnc1` displayed a melting point of 162 °C.

Take `CS(=O)(=O)c1csc(C(=O)O)c1Cl`: the melting point was in the range of 234 to 236 °C.

For the molecule `CC=CCCCCC`, the melting point was -80 °C.

In turn, `Cc1cc(C)c([N+](=O)[O-])c(F)c1` yielded a melting point of 56 °C.

`COC(=O)c1sccc1-n1cccc1` displayed a melting point of 61 °C.

Turning to `CCOC(=O)CC(=O)CCl`, the melting point is -8 °C.

For `CCCCCCCCCCCC(=O)Cl`, the melting point is -17 °C.

Molecule `Nc1n[nH]c2ccc(C(F)(F)F)cc12` came in with a melting point of 135 °C.

Molecule `ON(c1ccccc1)C(Br)C(Br)c1ccccc1` (stereo unspecified) showed a melting point of 125 °C.

`Cc1cc(Br)ccc1S(=O)(=O)Cl` gave a melting point of 65 to 67 °C.

The molecule `NC(=O)NC(=O)Cc1ccccc1` returned a melting point of 215 °C.

`CC(=O)OC12COC1CC(O)C1(C)C(=O)C(O)C3=C(C)C(O)CC(O)(C(OC(=O)c4ccccc4)C21)C3(C)C` (stereo unspecified) yielded a melting point of 231 to 236 °C.

`CC(=O)CCc1oc2c([N+](=O)[O-])cccc2c1-c1ccc(C)o1` showed a melting point of 103 °C.

Consider `COCCCn1c(C(=O)O)cc2c(=O)n(C)c(=O)n(C)c21`, for which the melting point is 166 °C.

`CC(C1CC1)C(O)(Cn1cncn1)c1ccc(Cl)cc1` (stereo unspecified) gave a melting point of 108 °C.

In turn, `S=C=Nc1ccc(I)cc1` gave a melting point of 76 to 78 °C.

`O=C(OCC(O)CO)c1ccccc1Nc1ccnc2cc(Cl)ccc12` (stereo unspecified) returned a melting point of 170 °C.

For the molecule `CC(=O)CCc1oc2c(I)cc(I)cc2c1-c1ccc(C)o1`, the melting point was determined as 192 °C.

In the case of `Cc1ccccc1C1(C#N)Cc2ccccc2C(=O)O1` (stereo unspecified), the melting point fell in the range of 121 to 123 °C.

With `Cc1cc2ccccc2n1C`, the melting point stood at 56.5 °C.

For the molecule `COc1c(C)cc(N)cc1C`, the melting point is 64 °C.

As for `CC(=O)c1ccc(Cl)c(Cl)c1Cl`, the melting point stood at 62 °C.

Molecule `Nc1ccc(NC(=O)C(F)(F)F)cc1` registered a melting point of 118 °C.

With `CC(=Nc1c(O)ccc2ccccc12)c1c(O)c2ccccc2n(-c2ccccc2)c1=O`, the melting point is 219 °C.

`Cc1cc2ncc(S(=O)(=O)C(C)(C)C)c(N)n2n1` yielded a melting point of 206 to 208 °C.

As for `Nc1ccc(CN2CCCCC2)cc1`, the melting point lay in the range of 87 to 88 °C.

In turn, `CCc1ccc(-c2ccccc2)cc1` showed a melting point of 35 °C.

`S=C(SSC(=S)N1CCCCC1)N1CCCCC1` showed a melting point of 138 °C.

`c1ccc(C(c2ccccc2)(c2ccccc2)N2CCOCC2)cc1` gave a melting point of 175 °C.

Turning to `ON=Cc1ccccc1O`, the melting point lay in the range of 56 to 59 °C.

For `Cc1ccc2c(c1C)CCC1C2CC=C2CC(C(=O)O)CCC21C` (stereo unspecified), the melting point came out at 162 °C.

With `COC(=O)c1ccc2nccnc2c1`, the melting point was 99 to 100 °C.

`N#CC1=C(N)Oc2c(c(C(F)(F)F)nn2-c2ccccc2)C1c1ccc(Cl)cc1Cl` (stereo unspecified) gave a melting point of 210 °C.

Regarding `Cc1cccc(NC(N)=O)c1`, the melting point was 138 to 143 °C.

Turning to `O=C(c1ccc([N+](=O)[O-])cc1)c1noc(-c2ccc(Cl)cc2)c1S(=O)(=O)c1ccccc1`, the melting point was 210 °C.

`Cc1ccccc1NC(=S)Nc1ccccc1C` had a melting point of 158 °C.

For the molecule `Fc1c(F)c(F)c(P(c2ccccc2)c2c(F)c(F)c(F)c(F)c2F)c(F)c1F`, the melting point was determined as 61.5 °C.

In turn, `CCOC(=O)c1cc(-c2cccs2)on1` registered a melting point of 48 to 51 °C.

`COc1ccc(/C(C(=O)c2ccccc2)=C2/C(=O)N(C(C)=O)c3ccccc32)cc1`: the melting point came to 180 °C.

`CC1=NC2(CCCCC2)[N+]([O-])=C1` showed a melting point of 112 to 116 °C.

Molecule `COc1c2occc2cc2ccc(=O)oc12` showed a melting point of 148 °C.

`c1ccc(Oc2nc(Oc3ccccc3)nc(Oc3ccccc3)n2)cc1` displayed a melting point of 234 °C.

In turn, `OC1OC2(CCCCC2)Cc2ccccc21` (stereo unspecified) registered a melting point of 89 °C.
